Values joined by “and” are separate entries in the source; they are usually repeats but may differ in a detail not shown here. Equal values may be shown once.
Experiments:
Wistar rats = test: Biotelemetry of body temperature and heart rate; format: in vivo, rat
Protocol: FIG. 7—The monitored body temperatures of Wistar rats administered vehicle, SOC-1 (5 mg/kg), or SOC-1 and the V1A receptor antagonist SR49059 (10 mg/kg).
FIG. 8—The monitored heart rates for Wistar rats administered vehicle, SOC-1 (5 mg/kg), or SOC-1 and the V1A receptor antagonist SR49059 (10 mg/kg).
However, the rats were not ataxic or comatose, they were simply in a relaxed quiescent state. […] Effects on body temperature and other behaviours are not blocked by pre-treatment with the vasopressin V1A receptor antagonist SR49059 (10 mg/kg). […] The data in these two studies was gathered with DataSciences International biotelemetry system.

human OT receptor = human OT receptor (Homo sapiens, UniProt P30559); test: Orthosteric binding against [3H]OT
Sprague Dawley rats = test: Acute toxicity, single intravenous bolus dose of 50 mg/kg, one week dose range finding study; format: in vivo
Protocol: The acute toxicity of SOC-1 test items was assessed in Sprague Dawley rats following intravenous administration of a single bolus dose of 50 mg/kg. A total of n=3 adult female rats were treated and then observed for 7 days prior to termination on Study Day 8 without necropsy.
The design of this acute single dose toxicity study in rats was adapted from OECD Guideline for Testing of Chemicals No. 420 Acute Oral Toxicity—Fixed Dose Procedure’ 2001 (3) and the test facility Standard Operating Procedure SP_T002 ‘Dose Range Finding Study in Rodents’. The study procedures were conducted as outlined below and according to related test facility Standard Operating Procedures.
Briefly, on completion of the acclimation period the study was commenced with administration of the treatment on Study Day 1. […] Body weights were also collected daily. On Study Day 8 the surviving animals were culled without necropsy.
The 5 mg/mL test item treatments were administered as a bolus intravenous injection in a dose volume of 10 mL/kg on Study Day 1 with restraint on conscious animals.
Morbidity and mortality observations were recorded daily during the acclimation period and on Day 8, and twice daily from Day 1 through Day 7.
Clinical observations were conducted at least once during the acclimation period. Clinical observations were conducted at least once daily from Day 1 up to and including the day prior to termination. On the day of treatment the animals were monitored continuously for the first 30 minutes post-treatment with formal observations made at 30 minutes, 1 hour and 4 hours post-treatment.
The clinical observations included examination of animals for changes in skin and fur, eyes and mucous membranes, respiratory and circulatory function, gait and posture, behaviour, tremors or convulsions and any other abnormal findings.
The clinical observations also included daily examination of the tail for any injection site reaction (for example, erythema or oedema).
Body weight was recorded once during the acclimation period and daily from the time of treatment on Day 1 to Day 8.

HEK-293 cells = test: Cell viability (Cell Titer Blue); format: cell-based; details: 48 hours; for Viability: mean ± SD
Protocol: (§1) No apparent cytotoxicity of SOC-1 has been seen in vitro or toxicity in vivo. In a test, SH-SY5Y neuroblastoma cells and HEK-293 cells (4×10^4 cells per well) were exposed to OT or SOC-1 (0.01-10 μM) for 48 hours, with daily media changes. Viability of cells was assessed after a 4 hour exposure to Cell Titer Blue (Promega).

[1] = system: SH-SY5Y neuroblastoma cells; test: Cell viability (Cell Titer Blue); format: cell-based; details: 48 hours; for Viability: mean ± SD
Protocol: as §1

[2] = Pharmacokinetics after IP and PO administration; format: in vivo, Hooded Wistar rats; details: for AUC(0-inf) / AUC(0-t) / Cmax / Tmax: Hooded Wistar, rat, plasma
Protocol: When given via an intraperitoneal injection (IP), SOC-1 plasma levels show a rapid elevation. This swiftly declines over the first hour before settling into a less hasty decrease in concentration over the proceeding hours. […] The initial increase in plasma levels is less pronounced when SOC-1 is given orally but the decline is far less rapid, with plasma concentration becoming equivalent to IP between 1 and 4 hours. In many ways this is a more favourable profile as, unlike the IP dosing, oral dosing results in levels of SOC-1 that are still high but that are also very stable over many hours, with a half-life of over four hours.

V1aR = target: T1, V1aR (Homo sapiens, UniProt P37288); test: IP1 signalling on V1aR HEK cells; format: cell-based
T1 construct: expressed in transfected cells; host or cells: HEK cells

male Sprague Dawley rats = test: Methamphetamine-primed reinstatement; format: in vivo, rat
OTR = target: T2, OTR (Homo sapiens, UniProt P30559); test: IP1 signalling on OTR HEK cells; format: cell-based
T2 construct: expressed in transfected cells; host or cells: HEK cells
T2 sequence (P30559 whole entry): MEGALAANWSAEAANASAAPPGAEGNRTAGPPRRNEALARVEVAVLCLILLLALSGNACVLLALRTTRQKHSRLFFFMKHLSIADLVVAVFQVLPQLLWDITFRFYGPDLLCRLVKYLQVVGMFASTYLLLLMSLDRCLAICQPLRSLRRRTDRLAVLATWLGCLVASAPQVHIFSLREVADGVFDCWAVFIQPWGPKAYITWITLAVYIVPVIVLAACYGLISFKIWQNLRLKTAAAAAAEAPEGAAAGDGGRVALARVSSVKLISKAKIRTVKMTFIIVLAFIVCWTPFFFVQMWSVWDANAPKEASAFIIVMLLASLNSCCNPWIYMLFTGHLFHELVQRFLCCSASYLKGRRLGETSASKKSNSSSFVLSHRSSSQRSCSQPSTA

T1 sequence (P37288 whole entry): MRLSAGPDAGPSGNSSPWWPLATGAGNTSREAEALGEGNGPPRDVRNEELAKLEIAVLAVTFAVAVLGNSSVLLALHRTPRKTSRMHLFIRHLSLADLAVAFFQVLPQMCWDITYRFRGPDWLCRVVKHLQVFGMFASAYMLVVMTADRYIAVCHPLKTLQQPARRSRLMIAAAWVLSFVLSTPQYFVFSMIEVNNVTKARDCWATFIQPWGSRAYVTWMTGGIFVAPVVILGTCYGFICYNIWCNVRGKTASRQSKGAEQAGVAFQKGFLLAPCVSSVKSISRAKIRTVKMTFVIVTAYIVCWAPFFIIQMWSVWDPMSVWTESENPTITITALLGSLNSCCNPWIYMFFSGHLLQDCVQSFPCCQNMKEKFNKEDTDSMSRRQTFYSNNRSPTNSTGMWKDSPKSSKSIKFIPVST
Chain of human OT receptor (P30559 whole entry): as the sequence (P30559 whole entry) above

Question: What does the source list for `Cl.Cn1ncc2c1Nc1ccccc1NC2` [SOC-1]?
Answer: body temperature (Wistar rats; 5 mg/kg): modest hypothermia; heart rate (Wistar rats; 5 mg/kg): no effect; hypothermia at higher ambient temperatures (Wistar rats; 30° C.): abolished; IC50 (human OT receptor): > 10 µM; body weight findings (Sprague Dawley rats; 50 mg/kg IV): no body weight findings that were considered treatment related; clinical findings post-dose on Study Day 1 (Sprague Dawley rats; 50 mg/kg IV): mild piloerection and reduced activity levels; injection site reactions (Sprague Dawley rats; 50 mg/kg IV): no findings of injection site reactions; morbidity and mortality (Sprague Dawley rats; 50 mg/kg IV): no unscheduled deaths or findings of morbidity; time to resolution of clinical findings post-dose (Sprague Dawley rats; 50 mg/kg IV): ≤ 4 h; tolerability (Sprague Dawley rats; 50 mg/kg IV): tolerated; vocalisation and flinch reactions at the time of dosing (Sprague Dawley rats; 50 mg/kg IV in Hartman's solution): not associated with similar reactions; Body Weight, mean ± SD (Sprague Dawley rats; 50 mg/kg IV, Study Day 1): 224.30 ± 7.45 g; Body weight, individual rats (Sprague Dawley rats; 50 mg/kg IV, Study Day 1): 228.4 grams and 215.7 grams and 228.8 grams; Body Weight, mean ± SD (Sprague Dawley rats; 50 mg/kg IV, Study Day 2): 223.07 ± 4.37 g; Body weight, individual rats (Sprague Dawley rats; 50 mg/kg IV, Study Day 2): 220.9 grams and 220.2 grams and 228.1 grams; Body Weight, mean ± SD (Sprague Dawley rats; 50 mg/kg IV, Study Day 3): 226.87 ± 4.33 g; Body weight, individual rats (Sprague Dawley rats; 50 mg/kg IV, Study Day 3): 225.1 grams and 223.7 grams and 231.8 grams; Body Weight, mean ± SD (Sprague Dawley rats; 50 mg/kg IV, Study Day 4): 223.03 ± 5.34 g; Body weight, individual rats (Sprague Dawley rats; 50 mg/kg IV, Study Day 4): 229.2 grams and 220.1 grams and 219.8 grams; Body Weight, mean ± SD (Sprague Dawley rats; 50 mg/kg IV, Study Day 5): 222.77 ± 4.75 g; Body weight, individual rats (Sprague Dawley rats; 50 mg/kg IV, Study Day 5): 219.0 grams and 221.2 grams and 228.1 grams; Body Weight, mean ± SD (Sprague Dawley rats; 50 mg/kg IV, Study Day 6): 223.80 ± 3.70 g; Body weight, individual rats (Sprague Dawley rats; 50 mg/kg IV, Study Day 6): 220.7 grams and 222.8 grams and 227.9 grams; Body Weight, mean ± SD (Sprague Dawley rats; 50 mg/kg IV, Study Day 7): 226.60 ± 2.57 g; Body weight, individual rats (Sprague Dawley rats; 50 mg/kg IV, Study Day 7): 225.7 grams and 224.6 grams and 229.5 grams; Body Weight, mean ± SD (Sprague Dawley rats; 50 mg/kg IV, Study Day 8): 228.03 ± 3.81 g; Body weight, individual rats (Sprague Dawley rats; 50 mg/kg IV, Study Day 8): 229.1 grams and 223.8 grams and 231.2 grams; Hunched posture or gait- mild (incidence) (Sprague Dawley rats; 50 mg/kg IV, n 3): 1; No abnormalities detected: (incidence) (Sprague Dawley rats; 50 mg/kg IV, n 3): 0; Piloerection- mild (incidence) (Sprague Dawley rats; 50 mg/kg IV, n 3): 1; Reduced activity (incidence) (Sprague Dawley rats; 50 mg/kg IV, n 3): 3; Viability (HEK-293 cells; 0.01 μM): 102.6 ± 2.1 percentage of vehicle viability; Viability (HEK-293 cells; 0.1 μM): 102.1 ± 3.2 percentage of vehicle viability; Viability (HEK-293 cells; 1 μM): 102.5 ± 3.6 percentage of vehicle viability; Viability (HEK-293 cells; 10 μM): 103.2 ± 1.2 percentage of vehicle viability; differences in viability (HEK-293 cells; 0.01-10 μM): No significant differences in viability; Viability ([1]; 0.01 μM): 98.9 ± 2.7 percentage of vehicle viability; Viability ([1]; 0.1 μM): 99.1 ± 2.9 percentage of vehicle viability; Viability ([1]; 1 μM): 97.7 ± 1.6 percentage of vehicle viability; Viability ([1]; 10 μM): 97.0 ± 2.5 percentage of vehicle viability; differences in viability ([1]; 0.01-10 μM): No significant differences in viability; AUC(0-inf) ([2]; ip, 5 mg/kg): 5910 ng·h/mL; AUC(0-t) ([2]; ip, 5 mg/kg): 5520 ng·h/mL; Cmax ([2]; ip, 5 mg/kg): 3840 ng/mL; Tmax ([2]; ip, 5 mg/kg): 3.96 min; AUC(0-inf) ([2]; po, 5 mg/kg): 8490 ng·h/mL; AUC(0-t) ([2]; po, 5 mg/kg): 4060 ng·h/mL; Cmax ([2]; po, 5 mg/kg): 1320 ng/mL; Tmax ([2]; po, 5 mg/kg): 26.1 min; ka ([2]; IP, 5 mg/kg): 71.727 h⁻¹; ke ([2]; IP, 5 mg/kg): 0.679 h⁻¹; t1/2ka ([2]; IP, 5 mg/kg): 0.5798 min; t1/2ke ([2]; IP, 5 mg/kg): 61.26 min; ka ([2]; PO, 5 mg/kg): 9.45 h⁻¹; t1/2ka ([2]; PO, 5 mg/kg): 4.38 min; t1/2ke ([2]; PO, 5 mg/kg): 248.8 min; half-life ([2]; oral dosing): over four; oral bioavailability ([2]; relative to the intraperitoneal route): excellent oral bioavailability; agonist or positive allosteric modulator activity at V1aR (V1aR): not an agonist or positive allosteric modulator of V1aRs; antagonist activity at V1aR (V1aR): weak antagonist activity; lever-pressing activity, SOC-1 on its own (SOC-1+vehicle) (male Sprague Dawley rats; 10 mg/kg, vs extinction day prior, p=0.147): did not significantly alter lever-pressing activity; locomotor activity across reinstatement sessions (male Sprague Dawley rats; 2.5 (p=0.006), 5 and 10 mg/kg (p<0.005) prior to methamphetamine prime): significantly lower; active lever pressing produced by a methamphetamine prime (male Sprague Dawley rats; 2.5, 5 and 10 mg/kg IP, each p<0.005 vs vehicle): significantly reduced active lever pressing; locomotor activity, sole administration of SOC-1 (male Sprague Dawley rats; vs previous extinction session, p=0.472): did not significantly change locomotor activity; agonist, antagonist or positive allosteric modulator activity at OTR (OTR): not an agonist or antagonist at OTRs, nor a positive allosteric modulator of the OTR
